Results taken from patent publication US9964534B2, “Method of making a skin care composition” (The Procter & Gamble Company, priority 2014, dated 2018).

Key:
HMGB1 = HMGB1 quantitation from keratinocytes (ELISA of supernatant, normalized to total protein); assay type: cell-based; conditions: for HMGB1 levels relative to the control: result in words
Description: Make a 210 mL suspension of keratinocytes at 40,000 cells/mL using suitable media to make a cell suspension. Place 2 mL of the cell suspension into the appropriate number of wells of one or more 12-well plates as needed, using the same velocity and insertion angle for each well as cells are pipetted. Incubate the 12-well plates overnight at 37° C. If the cell plating quality is poor (e.g., cells are not attached to plate or seeding density is uneven), discard and start over. Prepare a dosing media by diluting the test agent to the desired concentration (e.g., from 0.0001% to 10%) in a suitable media (e.g., the same media used to make the cell suspension). […] It is not uncommon for skin care actives to be included in skin care compositions at these levels. Optionally, include sufficient solublizer to provide 0.1% solublizer in the test sample. Add 2 mL of dosing media into each well of a 12-well plate and incubate at 4° C. overnight or until test agent is to be added to the test sample. Place prepared dosing media in the 37° C. incubator for at least 30 minutes, or until pH has equalized. When dosing media is warmed and at proper pH, dose the cells. Incubate the dosed cells at 37° C. for 6 hours. Keratinocytes (or other cells) are plated out in 12 well plates as described above with a seeding density of about […] and incubated overnight at 37° C. with 5% CO2. The keratinocytes are dosed with a dosing medium containing the test agent and the plates returned to the incubator for another 20 hours. The supernatant for each is collected and the HMGB1 level analyzed using ELISA (USCN Life Sciences) in accordance with manufacturer's instructions. The cells are lysed with Glo Lysis Buffer (Promega) and the protein levels determined using BCA kits (Pierce) per manufacturer's instructions. The values of HMGB1 determined by ELISA and normalized to total protein levels from the cells.

[1] = system: primary human melanocytes; assay: Melanocyte dendricity and size measurements (Incucyte ZOOM live cell imaging); assay type: cell-based; conditions: melanocytes contacted with HMGB1, over the span of three days
Excerpt: The ability of a test agent to inhibit dendricity and cell body growth in melanocytes may be determined by contacting a sample of melanocytes with the test agent, measuring the change in dendricity and/or cell body growth and comparing the measured indicator to a control to determine if the test agent is identified as a skin tone agent. In some instances, it is important for the test sample to include a source of HMGB1. For example, an amount of HMGB1 (e.g., recombinant HIS-tagged HMGB1 available from Sigma) may be included in the test sample (e.g., at a final level of 0.1 μg/mL), or the test sample may include another type of cell, which can be stimulated to produce HMGB1. A control may be obtained by measuring the dendricity and/or cell body size of the melanocytes prior to contact with the test agent, measuring the dendricity and/or cell body size of the melanocytes in a control sample and/or from the dendricity and/or cell body size of melanocytes published in scientific literature, if available.
Primary human melanocytes (ATCC) are cultured for 2 passages in T150 flasks. For dendricity experiments, melanocytes are plated into 96 well plates (clear) at a density of about 5000 cells/well. The plates are placed into an Incucyte ZOOM® live cell imaging system (Essen Bioscience, Ann Arbor, Mich.) which resides inside a 37° C., 5% CO2 incubator. […]

Row | Molecule | HMGB1 levels relative to the control (HMGB1) | HMGB1 (pg)/protein (ug) (HMGB1; test agent 0.001%) [pg/ug protein] | HMGB1 (pg)/protein (ug) (HMGB1; test agent 0.005%) [pg/ug protein] | HMGB1 (pg)/protein (ug) (HMGB1; test agent 0.02%) [pg/ug protein] | cell body size of melanocytes relative to the control [1] | dendricity (dendrite length) of melanocytes relative to the control [1]
1 | hydroxycinnamic acid [HCA] | significantly reduced | 29 | 6 | 2 |  | 
2 | methyl hydroxycinnamic acid [ME-HCA] | significantly reduced | 33 | 28 | 4 |  | 
3 | HMGB1: recombinant HIS-tagged HMGB1 available from Sigma; high-mobility group protein B1, SEQ ID No. 1 (protein, listed as Homo sapiens, His tag) MGKGDPKKPRGKMSSYAFFVQTCREEHKKKHPDASVNFSEFSKKCSERWKTMSAKEKGKFEDMAKADKARYEREMKTYIPPKGETKKKFKDPNAPKRPPSAFFLFCSEYRPKIKGEHPGLSIGDVAKKLGEMWNNTAADDKQPYEKKAAKLKEKYEKDIAAYRAKGKPDAAKKGVVKAEKSKKKKEEEEDEEDEEDEEEEEDEEDEDEEEDDDDE |  |  |  |  | significantly larger | significantly longer
